According to patent publication US11446287B2, “Compounds and methods for EP300 or CBP modulation and indications therefor” (Opna Immuno-Oncology SA, priority 2019, dated 2022):

target: T1, Recombinant human CBP containing the bromodomain (CBP-BD (1043-1159)) (Homo sapiens, UniProt Q92793); assay: CBP Alphascreen binding assay; settings: read-out: CREBBP (CBP) IC50
T1 construct: Recombinant human CBP bromodomain (CBP-BD (1043-1159)); made in house; host or cells: E. coli BL21-CodonPlus (DE3), modified pET vector
Procedure, shortened: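 Buffer: 50 mM HEPES pH 7.5, 50 mM NaCl, 0.01% BSA, 0.01% Triton X-100, 2 mM DTT. The signal was normalised to plate controls and fitted with a four-parameter curve to give IC50.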

T1 sequence (Q92793 1081-1197): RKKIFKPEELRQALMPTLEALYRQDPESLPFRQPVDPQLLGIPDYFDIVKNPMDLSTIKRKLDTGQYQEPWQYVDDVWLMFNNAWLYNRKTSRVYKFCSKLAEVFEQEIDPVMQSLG

Compound | IC50
Cc1noc(C)c1-c1cnc2c(c1)c(-c1ccc(C(=O)O)cc1)cn2[C@@H](C)c1ccccn1 [P-0001, (S)-4-(5-(3,5-dimethylisoxazol-4-yl)-1-(1-(pyridin-2-yl)ethyl)-1H-pyrrolo[2,3-b]pyridin-3-yl)benzoic acid] | 0.0001 to 1 µM
Cc1noc(C)c1-c1cnc2c(c1)c(-c1ccc(C(=O)O)cc1)cn2C(c1ccccn1)C1CCCC1 (stereo not shown) [P-0002, 4-(1-(cyclopentyl(pyridin-2-yl)methyl)-5-(3,5-dimethylisoxazol-4-yl)-1H-pyrrolo[2,3-b]pyridin-3-yl)benzoic acid] | 0.0001 to 1 µM
Cc1noc(C)c1-c1cnc2c(c1)c(-c1ccccc1)cn2C(c1ccccn1)C1CCCC1 (stereo not shown) [P-0003, 4-(1-(cyclopentyl(pyridin-2-yl)methyl)-3-phenyl-1H-pyrrolo[2,3-b]pyridin-5-yl)-3,5-dimethylisoxazole] | 8 to 1000 µM
Cc1noc(C)c1-c1cnc2c(c1)c(-c1ccc(C(=O)O)cc1)cn2C(c1ccccn1)C1CCCCC1 (stereo not shown) [P-0004, 4-(1-(cyclohexyl(pyridin-2-yl)methyl)-5-(3,5-dimethylisoxazol-4-yl)-1H-pyrrolo[2,3-b]pyridin-3-yl)benzoic acid] | 0.0001 to 1 µM
COC(=O)c1ccc(-c2cn(S(=O)(=O)c3ccc(C)cc3)c3ncc(-c4c(C)noc4C)cc23)cc1 [P-0005, methyl 4-(5-(3,5-dimethylisoxazol-4-yl)-1-tosyl-1H-pyrrolo[2,3-b]pyridin-3-yl)benzoate] | 8 to 1000 µM
Cc1noc(C)c1-c1cnc2c(c1)c(-c1ccnc(C(=O)O)c1)cn2S(=O)(=O)c1ccccc1 [P-0055, 4-(5-(3,5-dimethylisoxazol-4-yl)-1-(phenylsulfonyl)-1H-pyrrolo[2,3-b]pyridin-3-yl)picolinic acid] | 0.0001 to 1 µM
COc1cccc(Cn2cc(-c3cccc(C(=O)O)c3)c3cc(-c4c(C)noc4C)cnc32)c1 [P-0056, 3-(5-(3,5-dimethylisoxazol-4-yl)-1-(3-methoxybenzyl)-1H-pyrrolo[2,3-]pyridin-3-yl)benzoic acid] | 0.0001 to 1 µM
COc1cccc(Cn2cc(-c3ccnc(C(=O)O)c3)c3cc(-c4c(C)noc4C)cnc32)c1 [P-0057, 4-(5-(3,5-dimethylisoxazol-4-yl)-1-(3-methoxybenzyl)-1H-pyrrolo[2,3-b]pyridin-3-yl)picolinic acid] | 0.0001 to 1 µM
Cc1noc(C)c1-c1cnc2c(c1)c(-c1cccc(C(=O)O)c1)cn2C(C1CC1)C1CC1 [P-0058, 3-(1-(dicyclopropylmethyl)-5-(3,5-dimethylisoxazol-4-yl)-1H-pyrrolo[2,3-b]pyridin-3-yl)benzoic acid] | 0.0001 to 1 µM
Cc1noc(C)c1-c1cnc2c(c1)c(-c1cccc(C(=O)O)c1)cn2Cc1cccc(OC(F)(F)F)c1 [P-0059, 3-(5-(3,5-dimethylisoxazol-4-yl)-1-(3-(trifluoromethoxy)benzyl)-1H-pyrrolo[2,3-b]pyridin-3-yl)benzoic acid] | 0.0001 to 1 µM
Cc1noc(C)c1-c1cnc2c(c1)c(-c1cccc(C(=O)O)c1)cn2Cc1cccc(F)c1 [P-0060, 3-(5-(3,5-dimethylisoxazol-4-yl)-1-(3-fluorobenzyl)-1H-pyrrolo[2,3-b]pyridin-3-yl)benzoic acid] | 0.0001 to 1 µM
Cc1noc(C)c1-c1cnc2c(c1)c(-c1cccc(C(=O)O)c1)cn2Cc1cccc(Cl)c1 [P-0061, 3-(1-(3-chlorobenzyl)-5-(3,5-dimethylisoxazol-4-yl)-1H-pyrrolo[2,3-b]pyridin-3-yl)benzoic acid] | 0.0001 to 1 µM
Cc1cccc(Cn2cc(-c3cccc(C(=O)O)c3)c3cc(-c4c(C)noc4C)cnc32)c1 [P-0062, 3-(5-(3,5-dimethylisoxazol-4-yl)-1-(3-methylbenzyl)-1H-pyrrolo[2,3-b]pyridin-3-yl)benzoic acid] | 0.0001 to 1 µM
Cc1noc(C)c1-c1cnc2c(c1)c(-c1cccc(C(=O)O)c1)cn2Cc1cccc(C(F)(F)F)c1 [P-0063, 3-(5-(3,5-dimethylisoxazol-4-yl)-1-(3-(trifluoromethyl)benzyl)-1H-pyrrolo[2,3-b]pyridin-3-yl)benzoic acid] | 0.0001 to 1 µM
Cc1noc(C)c1-c1cnc2c(CC3CCC3)cn(-c3ccc(C(=O)O)cc3OC(F)F)c2c1 [P-0064, 4-(3-(cyclobutylmethyl)-6-(3,5-dimethylisoxazol-4-yl)-1H-pyrrolo[3,2-b]pyridin-1-yl)-3-(difluoromethoxy)benzoic acid] | 0.0001 to 1 µM
Cc1noc(C)c1-c1cnc2c(CC3CC3)cn(-c3ccnc(C(=O)O)c3)c2c1 [P-0065, 4-(3-(cyclopropylmethyl)-6-(3,5-dimethylisoxazol-4-yl)-1H-pyrrolo[3,2-b]pyridin-1-yl)picolinic acid] | 0.0001 to 1 µM
Cc1noc(C)c1-c1cnc2c(CC3CCC3)cn(-c3ccc(C(=O)O)cc3OC(F)(F)F)c2c1 [P-0066, 4-(3-(cyclobutylmethyl)-6-(3,5-dimethylisoxazol-4-yl)-1H-pyrrolo[3,2-b]pyridin-1-yl)-3-(trifluoromethoxy)benzoic acid] | 0.0001 to 1 µM
COc1cc(C(=O)O)cc(OC)c1-n1cc(CC2CCC2)c2ncc(-c3c(C)noc3C)cc21 [P-0067, 4-(3-(cyclobutylmethyl)-6-(3,5-dimethylisoxazol-4-yl)-1H-pyrrolo[3,2-b]pyridin-1-yl)-3,5-dimethoxybenzoic acid] | 0.0001 to 1 µM
Cc1noc(C)c1-c1cnc2c(CC3CCC3)cn(-c3ccc(S(C)(=O)=O)c(F)c3)c2c1 [P-0068, 4-(3-(cyclobutylmethyl)-1-(3-fluoro-4-(methylsulfonyl)phenyl)-1H-pyrrolo[3,2-b]pyridin-6-yl)-3,5-dimethylisoxazole] | 0.0001 to 1 µM
Cc1noc(C)c1-c1cnc2c(c1)c(C#CC(=O)O)cn2Cc1ccccc1 [P-0069, 3-(1-benzyl-5-(3,5-dimethylisoxazol-4-yl)-1H-pyrrolo[2,3-b]pyridin-3-yl)propiolic acid] | 0.0001 to 1 µM
Cc1noc(C)c1-c1cnc2c(c1)c(-c1ccc(C(=O)O)cc1OC(F)(F)F)cn2[C@@H](C)c1ccccn1 [P-0070, (S)-4-(5-(3,5-dimethylisoxazol-4-yl)-1-(1-(pyridin-2-yl)ethyl)-1H-pyrrolo[2,3-b]pyridin-3-yl)-3-(trifluoromethoxy)benzoic acid] | 0.0001 to 1 µM
Cc1noc(C)c1-c1cnc2c(c1)c(-c1ccc(C(=O)O)cc1OC(F)F)cn2[C@@H](C)c1ccccn1 [P-0071, (S)-3-(difluoromethoxy)-4-(5-(3,5-dimethylisoxazol-4-yl)-1-(1-(pyridin-2-yl)ethyl)-1H-pyrrolo[2,3-b]pyridin-3-yl)benzoic acid] | 0.0001 to 1 µM
Cc1noc(C)c1-c1cnc2c(c1)c(-c1cccc(C(=O)O)c1)cn2C(C1CCC1)C1CCC1 [P-0072, 3-(1-(dicyclobutylmethyl)-5-(3,5-dimethylisoxazol-4-yl)-1H-pyrrolo[2,3-b]pyridin-3-yl)benzoic acid] | 0.0001 to 1 µM
Cc1noc(C)c1-c1cnc2c(c1)c(-c1cccc(C(=O)O)c1)cn2C(c1ccccn1)C1CCC1 (stereo not shown) [P-0073, 3-(1-(cyclobutyl(pyridin-2-yl)methyl)-5-(3,5-dimethylisoxazol-4-yl)-1H-pyrrolo[2,3-b]pyridin-3-yl)benzoic acid] | 0.0001 to 1 µM
Cc1noc(C)c1-c1cnc2c(CC3CCC3)cn(-c3c(Cl)cc(C(=O)O)cc3Cl)c2c1 [P-0074, 3,5-dichloro-4-(3-(cyclobutylmethyl)-6-(3,5-dimethylisoxazol-4-yl)-1H-pyrrolo[3,2-b]pyridin-1-yl)benzoic acid] | 0.0001 to 1 µM
